Source: EP0535269A1, “Pharmaceutical compositions containing thiazolidinedione derivatives” (TANABE SEIYAKU CO., LTD., priority 1991, dated 1993)

Assay: Bioavailability of a solution in a water-soluble polymer: plasma levels after oral administration
Assay type: in vivo
Conditions: dogs, control formulation: untreated original drug (20 µm) with equal amount of corn starch in gelatin capsule, 100 mg/Dog, HPLC (Fig. 4)
Experimental: 5-[(2,4-dioxothiazolidin-5-yl)methyl]-2-[(2-naphthyl)methyl]benzoxazole (3 g) was dissolved in polyethyleneglycol (average molecule weight: approximately 380-420, trade name: Macrogol-400, Sanyo Chemical Industries Ltd.) (100 ml) to provide the preparation of the present invention. Mixture of an equal amount of untreated original drug (particle size: 20 µm) and corn starch was encapsulated in a gelatin capsule to give a formulation used as a control.
Four dogs (10 - 15 kg) were used in this experiment. The preparation of the invention was administered to dogs orally at the dose of 10 mg/Dog. In the separate experiment, the control formulation was administered at 100 mg/Dog. The blood was taken from the dogs and the concentration of the active compound (I) in the plasma sample was assayed in the same manner as described in the above. The time-course of the plasma levels of the drug was plotted.
In the figure, closed circles represent the average plasma levels of the compound (I) following the administration of the solution of the invention, and semi-closed circles represent those following the administration of untreated original drug.

- plasma levels of the compound (I): extremely low
SMILES: O=C1NC(=O)C(Cc2ccc3oc(Cc4ccc5ccccc5c4)nc3c2)S1 (stereo not shown) [raw material, 5-[(2,4-dioxothiazolidin-5-yl)methyl]-2-[(2-naphthyl)methyl]benzoxazole]
